Consider 33 compounds from ChEMBL document CHEMBL4613209, “Quinolone hybrids and their anti-cancer activities: An overview” (Eur J Med Chem, 2019).

Type in all cases: functional, cell-based
The subject of one assay is L1210. The assay can be described thus: Cytotoxicity against mouse L1210 cells assessed as reduction in cell viability by MTT assay. In general terms: Tetrazolium assays rely on reduction of a dye to a coloured formazan, in cell work by metabolically active cells.
In another assay the test system is CAPAN-1. The assay can be described thus: Cytotoxicity against human Capan1 cells assessed as reduction in cell viability by MTT assay.
A further assay has as its system Hep 3B2. The assay can be described thus: Cytotoxicity against human Hep3B cells assessed as reduction in cell viability by MTT assay.
The subject of the next assay is HL-60. The assay can be described thus: Cytotoxicity against human HL60 cells assessed as reduction in cell viability by MTT assay.
The test system of another assay is SMMC-7721. The assay can be described thus: Cytotoxicity against human SMMC7721 cells assessed as reduction in cell viability by MTT assay.

As usually defined, the IC50 is the point on the concentration scale where inhibition reaches its midpoint.

As to `CCn1cc(-c2nc(SCc3nnc(-c4ccccc4)o3)n(CN(C)C)n2)c(=O)c2cc(F)c(N3CCN(C)CC3)cc21`, the IC50 in the assay on L1210, in the assay on CAPAN-1, in the assay on Hep 3B2, in the assay on HL-60 and in the assay on SMMC-7721 was 1.5 to 24.5 µM in each case.
As to `CCn1cc(-c2nnc(SCc3nnc(-c4ccc(F)cc4)o3)[nH]2)c(=O)c2cc(F)c(N3CCN(C)CC3)cc21`, the IC50 with L1210, in the assay with CAPAN-1, in the assay with Hep 3B2, in the assay on HL-60 and with SMMC-7721 was 3.8 to 35.2 µM throughout.
On to `CCn1cc(-c2nnc(SCc3nnc(-c4ccccc4OC)o3)[nH]2)c(=O)c2cc(F)c(N3CCN(C)CC3)cc21`, for which the IC50 with L1210, in the assay on CAPAN-1, in the assay on Hep 3B2, in the assay with HL-60 and in the assay with SMMC-7721 was 3.8 to 35.2 µM each time.
For `CCn1cc(-c2nc(SCc3nnc(-c4ccccc4OC)o3)n(CN(C)C)n2)c(=O)c2cc(F)c(N3CCN(C)CC3)cc21`, the IC50 with L1210, in the assay with CAPAN-1, in the assay on Hep 3B2, in the assay with HL-60 and in the assay with SMMC-7721 was 1.5 to 24.5 µM throughout.
Regarding `CC1COc2c(N3CCN(C)CC3)c(F)cc3c(=O)c(-c4nc5scc(-c6ccc(F)cc6)n5n4)cn1c23` (stereo not given), the IC50 in the assay on L1210, with CAPAN-1, in the assay on Hep 3B2, in the assay with HL-60 and in the assay on SMMC-7721 was 3.6 to 56.8 µM throughout.
Consider `COc1ccc(-c2csc3nc(-c4cn5c6c(c(N7CCN(C)CC7)c(F)cc6c4=O)OCC5C)nn23)cc1OC` (stereo not given), for which the half-maximal inhibitory concentration (IC50) with L1210, with CAPAN-1, with Hep 3B2, in the assay with HL-60 and with SMMC-7721 was 35.7 to 53.6 µM each time.
With `CC1COc2c(N3CCN(C)CC3)c(F)cc3c(=O)c(-c4nc5scc(-c6ccccc6O)n5n4)cn1c23` (stereo not given), the IC50 in the assay with L1210, with CAPAN-1, with Hep 3B2, in the assay with HL-60 and in the assay on SMMC-7721 was 3.6 to 56.8 µM each time.
As to `CCn1cc(-c2nc(SCc3nnc(-c4cccc(C)c4)o3)n(CN(C)C)n2)c(=O)c2cc(F)c(N3CCN(C)CC3)cc21`, the IC50 in the assay on L1210, with CAPAN-1, in the assay with Hep 3B2, in the assay on HL-60 and with SMMC-7721 was 1.5 to 24.5 µM in each case.
In the case of `CCn1cc(-c2nnc(SCc3nnc(-c4cccc(C)c4)o3)[nH]2)c(=O)c2cc(F)c(N3CCN(C)CC3)cc21`, the IC50 with L1210, with CAPAN-1, with Hep 3B2, in the assay with HL-60 and in the assay on SMMC-7721 was 3.8 to 35.2 µM each time.
With `CCn1cc(-c2nnc(SCc3nnc(-c4ccc(C)cc4)o3)[nH]2)c(=O)c2cc(F)c(N3CCN(C)CC3)cc21`, the IC50 with L1210, with CAPAN-1, with Hep 3B2, in the assay on HL-60 and in the assay with SMMC-7721 was 3.8 to 35.2 µM each time.
For `COc1cc(-c2csc3nc(-c4cn5c6c(c(N7CCN(C)CC7)c(F)cc6c4=O)OCC5C)nn23)ccc1O` (stereo not given), the half-inhibitory concentration (IC50) in the assay on L1210, in the assay with CAPAN-1, in the assay with Hep 3B2, in the assay on HL-60 and in the assay with SMMC-7721 was 3.6 to 56.8 µM throughout.
As for `CCn1cc(-c2nc(SCc3nnc(-c4ccc(C)cc4)o3)n(CN(C)C)n2)c(=O)c2cc(F)c(N3CCN(C)CC3)cc21`, the IC50 with L1210, with CAPAN-1, in the assay with Hep 3B2, in the assay on HL-60 and in the assay with SMMC-7721 was 1.5 to 24.5 µM throughout.
With `CCn1cc(-c2nnc(SCc3nnc(-c4ccc(OC)c(OC)c4)o3)[nH]2)c(=O)c2cc(F)c(N3CCN(C)CC3)cc21`, the IC50 with L1210, in the assay on CAPAN-1, in the assay on Hep 3B2, with HL-60 and in the assay with SMMC-7721 was 3.8 to 35.2 µM throughout.
On to `CCn1cc(-c2nc(SCc3nnc(-c4ccc(F)cc4)o3)n(CN(C)C)n2)c(=O)c2cc(F)c(N3CCN(C)CC3)cc21`, for which the IC50 with L1210, in the assay with CAPAN-1, in the assay with Hep 3B2, with HL-60 and in the assay on SMMC-7721 was 1.5 to 5.2 µM throughout.
As to `CCn1cc(-c2nnc(SCc3nnc(-c4cc(OC)c(OC)c(OC)c4)o3)[nH]2)c(=O)c2cc(F)c(N3CCN(C)CC3)cc21`, the IC50 in the assay with L1210, in the assay with CAPAN-1, in the assay with Hep 3B2, with HL-60 and in the assay on SMMC-7721 was 3.8 to 35.2 µM each time.
As to `CCn1cc(-c2nc(SCc3nnc(-c4ccc(OC)c(OC)c4)o3)n(CN(C)C)n2)c(=O)c2cc(F)c(N3CCN(C)CC3)cc21`, the IC50 in the assay with L1210, in the assay on CAPAN-1, with Hep 3B2, in the assay with HL-60 and in the assay on SMMC-7721 was 1.5 to 24.5 µM throughout.
For the compound `CC1COc2c(N3CCN(C)CC3)c(F)cc3c(=O)c(-c4nc5scc(-c6ccc(O)cc6)n5n4)cn1c23` (stereo not given), the IC50 in the assay with L1210, in the assay on CAPAN-1, in the assay with Hep 3B2, in the assay with HL-60 and in the assay with SMMC-7721 was 3.6 to 56.8 µM each time.
Regarding `Cc1ccc(-c2csc3nc(-c4cn(C5CC5)c5cc(N6CCN(C)CC6)c(F)cc5c4=O)nn23)cc1`, the IC50 with L1210, in the assay on CAPAN-1, in the assay with Hep 3B2, in the assay with HL-60 and in the assay on SMMC-7721 was 3.6 to 56.8 µM each time.
With `CC1COc2c(N3CCN(C)CC3)c(F)cc3c(=O)c(-c4nc5scc(-c6ccc(Cl)cc6)n5n4)cn1c23` (stereo not given), the IC50 with L1210, in the assay with CAPAN-1, in the assay with Hep 3B2, in the assay on HL-60 and with SMMC-7721 was 3.6 to 56.8 µM each time.
`CN1CCN(c2cc3c(cc2F)c(=O)c(-c2nc4scc(-c5ccc(Cl)cc5)n4n2)cn3C2CC2)CC1`: the IC50 in the assay on L1210, in the assay on CAPAN-1, with Hep 3B2, in the assay with HL-60 and in the assay with SMMC-7721 was 3.6 to 56.8 µM throughout.
In the case of `CC1COc2c(N3CCN(C)CC3)c(F)cc3c(=O)c(-c4nc5scc(-c6ccc7c(c6)OCO7)n5n4)cn1c23` (stereo not given), the IC50 in the assay with L1210, in the assay on CAPAN-1, in the assay on Hep 3B2, with HL-60 and with SMMC-7721 was 3.6 to 56.8 µM each time.
In the case of `CCn1cc(-c2nc(SCc3nnc(-c4ccc(Cl)cc4)o3)n(CN(C)C)n2)c(=O)c2cc(F)c(N3CCN(C)CC3)cc21`, the IC50 with L1210, with CAPAN-1, with Hep 3B2, with HL-60 and in the assay on SMMC-7721 was 1.5 to 24.5 µM each time.
As to `CCn1cc(-c2nc(SCc3nnc(-c4ccc(OC)cc4)o3)n(CN(C)C)n2)c(=O)c2cc(F)c(N3CCN(C)CC3)cc21`, the IC50 with L1210, in the assay on CAPAN-1, in the assay with Hep 3B2, in the assay on HL-60 and with SMMC-7721 was 1.5 to 24.5 µM each time.
In the case of `CN1CCN(c2cc3c(cc2F)c(=O)c(-c2nc4scc(-c5ccccc5)n4n2)cn3C2CC2)CC1`, the IC50 with L1210, with CAPAN-1, with Hep 3B2, in the assay on HL-60 and in the assay on SMMC-7721 was 3.6 to 56.8 µM in each case.
Regarding `CCn1cc(-c2nnc(SCc3nnc(-c4ccc([N+](=O)[O-])cc4)o3)[nH]2)c(=O)c2cc(F)c(N3CCN(C)CC3)cc21`, the IC50 in the assay with L1210, in the assay on CAPAN-1, with Hep 3B2, in the assay with HL-60 and in the assay with SMMC-7721 was 3.8 to 35.2 µM in each case.
For the compound `CCn1cc(-c2nnc(SCc3nnc(-c4ccc(Cl)cc4)o3)[nH]2)c(=O)c2cc(F)c(N3CCN(C)CC3)cc21`, the IC50 in the assay on L1210, in the assay with CAPAN-1, in the assay with Hep 3B2, with HL-60 and in the assay with SMMC-7721 was 3.8 to 35.2 µM throughout.
Consider `CCn1cc(-c2nnc(SCc3nnc(-c4ccc(OC)cc4)o3)[nH]2)c(=O)c2cc(F)c(N3CCN(C)CC3)cc21`, for which the IC50 in the assay on L1210, in the assay with CAPAN-1, in the assay with Hep 3B2, in the assay on HL-60 and in the assay on SMMC-7721 was 3.8 to 35.2 µM throughout.
As for `CN1CCN(c2cc3c(cc2F)c(=O)c(-c2nc4scc(-c5ccc(Br)cc5)n4n2)cn3C2CC2)CC1`, the IC50 with L1210, with CAPAN-1, in the assay on Hep 3B2, with HL-60 and in the assay on SMMC-7721 was 3.6 to 56.8 µM throughout.
Consider `CC1COc2c(N3CCN(C)CC3)c(F)cc3c(=O)c(-c4nc5scc(-c6ccc([N+](=O)[O-])cc6)n5n4)cn1c23` (stereo not given), for which the half-maximal inhibitory concentration (IC50) in the assay with L1210, in the assay on CAPAN-1, in the assay on Hep 3B2, in the assay on HL-60 and with SMMC-7721 was 3.6 to 56.8 µM each time.
Regarding `CN1CCN(c2cc3c(cc2F)c(=O)c(-c2nc4scc(-c5ccc(F)cc5)n4n2)cn3C2CC2)CC1`, the IC50 in the assay on L1210, in the assay with CAPAN-1, with Hep 3B2, with HL-60 and with SMMC-7721 was 3.6 to 56.8 µM in each case.
Turning to `COc1ccc(-c2csc3nc(-c4cn(C5CC5)c5cc(N6CCN(C)CC6)c(F)cc5c4=O)nn23)cc1`, the IC50 in the assay on L1210, with CAPAN-1, in the assay with Hep 3B2, with HL-60 and in the assay with SMMC-7721 was 3.6 to 56.8 µM in each case.
For the compound `Cc1ccc(-c2csc3nc(-c4cn5c6c(c(N7CCN(C)CC7)c(F)cc6c4=O)OCC5C)nn23)cc1` (stereo not given), the IC50 with L1210, with CAPAN-1, with Hep 3B2, with HL-60 and with SMMC-7721 was 3.6 to 56.8 µM throughout.
As to `CCn1cc(-c2nc(SCc3nnc(-c4cc(OC)c(OC)c(OC)c4)o3)n(CN(C)C)n2)c(=O)c2cc(F)c(N3CCN(C)CC3)cc21`, the IC50 with L1210, with CAPAN-1, with Hep 3B2, in the assay on HL-60 and in the assay on SMMC-7721 was 1.5 to 24.5 µM in each case.
